Assay results taken from US6346518B1, “Itraconazole and saperconazole stereoisomers” (Janssen Pharmaceutica N.V., priority 1995, dated 2002).

Experiments:
[1] = cited from earlier work
[2] = solubility in water in the absence or presence of 2-hydroxypropyl-β-cyclodextrin (saturated solutions, UV spectrometry); type: physicochemical; details: ambient temperature
Procedure: A 10 ml stock solution comprising 0, 2.5, 5, 7.5, 10, 20, 30 or 40% (weight by volume) 2-hydroxypropyl-β-cyclodextrin (M.S.=0.4) was put in a 20 ml tinted vial. To each vial there was added a quantity of itraconazole or saperconazole sufficient to yield a saturated solution. The vials were sonicated for 10 minutes and all vials were checked to ascertain that an undissolved remnant remained Where all the material had dissolved, another quantity of the material was added The vials were closed and protected from light by wrapping them in aluminum foil. The vials were then shaken in an appropriate apparatus. 24Hours later the vials were checked again to ascertain that an undissolved remnant of the material remained and where necessary a further quantity of the material was added. The vials were shaken for at least 72 hours and then allowed to stand until all undissolved material had precipitated. The vials were opened and the pH of the saturated solutions was measured. An aliquot of the supernatant solution was filtered and the amount of dissolved active ingredient was measured by UV spectrometry (255 nm), if necessary after diluting said aliquot to a concentration suitable for UV spectrometry.

[3] = solubility in artificial gastric juice; type: physicochemical; details: ambient temperature
Procedure: About 10 mg of either product was added to 100 ml artificial gastric juice (0.2 g NaCL+0.7 ml concentrated HCl diluted to 100 ml) at ambient temperature. The mixture was stirred and a sample was taken from each solution at regular intervals. The amount of dissolved active ingredient was determined following the procedure described in the previous example.

Aspergillus spp. = details: compared with itraconazole; U.S. Pat. No. 4,916,134; cited from earlier work
[4] = 2-hydroxypropyl-β-cyclodextrin concentration 2.5%
[5] = 2-hydroxypropyl-β-cyclodextrin concentration 5%
[6] = 2-hydroxypropyl-β-cyclodextrin concentration 7.5%
[7] = 2-hydroxypropyl-β-cyclodextrin concentration 10%
[8] = 2-hydroxypropyl-β-cyclodextrin concentration 20%
[9] = 2-hydroxypropyl-β-cyclodextrin concentration 30%
[10] = 2-hydroxypropyl-β-cyclodextrin concentration 40%

Compound | solubility in water [1] | concentration in water [2, 4] | concentration in water [2, 5] | concentration in water [2, 6] | concentration in water [2, 7] | concentration in water [2, 8] | concentration in water [2, 9] | concentration in water [2, 10] | concentration of dissolved active ingredient ([3]; 1 h.) | concentration of dissolved active ingredient ([3]; 2 h.) | concentration of dissolved active ingredient ([3]; 3 h.) | concentration of dissolved active ingredient ([3]; 4 h.) | concentration of dissolved active ingredient ([3]; 6 h.) | concentration of dissolved active ingredient ([3]; 26 h.) | concentration of dissolved active ingredient ([3]; 46 h.) | concentration of dissolved active ingredient ([3]; 51 h.) | concentration of dissolved active ingredient ([3]; 69 h.) | other results
CCC(C)n1ncn(-c2ccc(N3CCN(c4ccc(OCC5COC(Cn6cncn6)(c6ccc(Cl)cc6Cl)O5)cc4)CC3)cc2)c1=O (racemic) [itraconazole, (±)-cis-4-[4-[4-[4-[[2-(2,4-dichlorophenyl)-2-(1H-1,2,4-triazol-1-ylmethyl)-1,3-dioxolan-4-yl]methoxy]phenyl]-1-piperazinylphenyl]-2,4-dihydro-2-(1-methyl-propyl)-3H-1,2,4-triazol-3-one] | only very sparingly soluble in water | 0.36 mg/100 ml | 1.79 mg/100 ml | 4.74 mg/100 ml | 10.28 mg/100 ml | 50 mg/100 ml | 95 mg/100 ml | 174 mg/100 ml | 0.023 mg/100 ml | 0.079 mg/100 ml | 0.15 mg/100 ml | 0.19 mg/100 ml | 0.27 mg/100 ml | 0.40 mg/100 ml | 0.40 mg/100 ml | 0.41 mg/100 ml | 0.45 mg/100 ml | –
CCC(C)n1ncn(-c2ccc(N3CCN(c4ccc(OCC5COC(Cn6cncn6)(c6ccc(F)cc6F)O5)cc4)CC3)cc2)c1=O (racemic) [saperconazole, (±)-cis-4-[4-[4-[4-[[2-(2,4-difluorophenyl)-2-(1H-2,4-triazol-1-yl-methyl)-1,3-dioxolan-4-yl]methoxylphenyl]-1-piperazinyl]-phenyl]-2,4-dihydro-2-(1-methylpropyl)-3H-1,2,4-triazol-3-one] | only very sparingly soluble in water | – | – | – | – | – | – | – | – | – | – | – | – | – | – | – | – | activity against Aspergillus spp. (Aspergillus spp.): improved activity against Aspergillus spp.
(+)-[2R-[2α,4α, 4(R)]]-4-[4-[4-[4[[dichlorophenyl)-2-(1H-1,2,4-triazol-1-ylmethyl)-1,3-dioxolan-4-yl]methoxy]phenyl]-1-piperazinyl]phenyl]-2,4-dihydro-2-(1-methylpropyl)-3H-1,2,4-triazol-3-one [Compound 4] | – | 2.43 mg/100 ml | 15.84 mg/100 ml | 41.70 mg/100 ml | 83.72 mg/100 ml | 481 mg/100 ml | 1166 mg/100 ml | 2017 mg/100 ml | – | – | – | – | – | – | – | – | – | –
(+)-[2S-[2α, 4α, 4(R)]1-4-[4-[4-[4-[[2-(2,4-dichlor triazol-1-ylmethyl)-1,3-dioxolan-4-yl]methoxy]phenyl]-1-piperazinyl]phenyl]-2,4-dihydro-2-(1-methylpropyl)-3H-1,2,4-triazol-3-one [Compound 3] | – | – | – | – | – | – | – | – | 0.32 mg/100 ml | 0.69 mg/100 ml | 1.09 mg/100 ml | 1.41 mg/100 ml | 1.94 mg/100 ml | 3.93 mg/100 ml | 5.08 mg/100 ml | 5.39 mg/100 ml | 6.36 mg/100 ml | concentration of dissolved active ingredient ([3]; 5 min.): 0.005 mg/100 ml; concentration of dissolved active ingredient ([3]; 15 min.): 0.037 mg/100 ml; concentration of dissolved active ingredient ([3]; 30 min.): 0.15 mg/100 ml
(−)-[2S-[2α, 4α, 4(S)[[-4-[4-[4-[4-[[2-(2,4-dichlorophenyl-2(1H-1,2,4-triazol-1-ylmethyl)-1,3-dioxolan-4-yl]methoxy]phenyl]-1-piperazinyl]phenyl ]-2,4-dihydro-2-(1-methylpropyl)-3H-1,2,4-triazol-3-one [Compound 2] | – | 3.58 mg/100 ml | 16.36 mg/100 ml | 41.39 mg/100 ml | 78.16 mg/100 ml | 332 mg/100 ml | 846 mg/100 ml | 1720 mg/100 ml | – | – | – | – | – | – | – | – | – | –
